Measurements from ChEMBL document CHEMBL3885861, “Open TG-GATES”.

Species on record: Rattus norvegicus
Assay: Open TG-GATES - Regimen: Daily Repeat
Type: toxicity, organism-based, Sprague-Dawley
Set-up: regimen Daily Repeat, gender Male, age 6 weeks
Details: in vivo, po, route gavage; for APTT / Bas / Eos / Fbg / Hb / Ht / Lym / MCH / MCHC / MCV / Mono / Neu / PT / Plat / RBC / Ret / WBC: tissue Blood; for KIDNEY_L / KIDNEY_R / KIDNEY_TOTAL: tissue Kidney; for LIVER: tissue Liver; for A/G / ALP / ALT / AST / BUN / CRE / Ca / Cl / DBIL / GLC / IP / K / LDH / Na / PL / RALB / TBIL / TC / TG / TP / gamma-GTP: tissue Plasma
[1] = 0 mg/kg, 72 h, dose level Control, time 3 day
[2] = 0 mg/kg, […], dose level Control, time 7 day
[3] = 0 mg/kg, […], dose level Control, time 14 day
[4] = 0 mg/kg, […], dose level Control, time 28 day
[5] = 10 mg/kg, 72 h, dose level Low, time 3 day
[6] = 10 mg/kg, […], dose level Low, time 7 day
[7] = 10 mg/kg, […], dose level Low, time 14 day
[8] = 10 mg/kg, […], dose level Low, time 28 day

## O=C1CN(/N=C/c2ccc([N+](=O)[O-])o2)C(=O)N1 [NITROFURANTOIN]
[1]
  TERMINAL_BW: 244.1 g
  APTT: 19.2 s
  Bas: 0%
  Eos: 1%
  Fbg: 219 mg/dL
  Hb: 13.7 g/dL
  Ht: 39.1%
  Lym: 80.6%
  MCH: 22 pg
  MCHC: 35.1%
  MCV: 62.8 fL
  Mono: 3%
  Neu: 13.8%
  PT: 12.3 s
  Plat: 134.3 x10_4/uL
  RBC: 622.8 x10_4/ul
  Ret: 6.3%
  WBC: 116.2 x10_2/uL
  KIDNEY_L: 1 g
  KIDNEY_R: 1.1 g
  KIDNEY_TOTAL: 2.1 g
  LIVER: 12.1 g
  A/G: 1.5
  ALP: 885 IU/L
  ALT: 35.6 IU/L
  AST: 68.6 IU/L
  BUN: 16.2 mg/dL
  CRE: 0.4 mg/dL
  Ca: 10.8 mg/dL
  Cl: 101 meq/L
  DBIL: 0.1 mg/dL
  GLC: 233.2 mg/dL
  IP: 7.2 mg/dL
  K: 3.7 meq/L
  LDH: 200.8 IU/L
  Na: 140 meq/L
  PL: 166.6 mg/dL
  RALB: 3.4 g/dL
  TBIL: 0.2 mg/dL
  TC: 77.6 mg/dL
  TG: 139.8 mg/dL
  TP: 5.6 g/dL
  gamma-GTP: 1 IU/L
[2]
  TERMINAL_BW: 274 g
  APTT: 19.9 s
  Bas: 0%
  Eos: 0.8%
  Fbg: 227.8 mg/dL
  Hb: 14.1 g/dL
  Ht: 40.2%
  Lym: 80.6%
  MCH: 21.5 pg
  MCHC: 35.2%
  MCV: 61.2 fL
  Mono: 2.6%
  Neu: 14.6%
  PT: 12.5 s
  Plat: 135 x10_4/uL
  RBC: 657.2 x10_4/ul
  Ret: 5.4%
  WBC: 123.7 x10_2/uL
  KIDNEY_L: 1.2 g
  KIDNEY_R: 1.2 g
  KIDNEY_TOTAL: 2.4 g
  LIVER: 13 g
  A/G: 1.5
  ALP: 943.4 IU/L
  ALT: 32.8 IU/L
  AST: 63.2 IU/L
  BUN: 16.4 mg/dL
  CRE: 0.4 mg/dL
  Ca: 10.8 mg/dL
  Cl: 101 meq/L
  DBIL: 0.1 mg/dL
  GLC: 192.8 mg/dL
  IP: 6.9 mg/dL
  K: 4.4 meq/L
  LDH: 238.6 IU/L
  Na: 139.8 meq/L
  PL: 166.8 mg/dL
  RALB: 3.5 g/dL
  TBIL: 0.2 mg/dL
  TC: 79.4 mg/dL
  TG: 141 mg/dL
  TP: 5.8 g/dL
  gamma-GTP: 0.6 IU/L
[3]
  TERMINAL_BW: 331.5 g
  APTT: 20.1 s
  Bas: 0%
  Eos: 0.6%
  Fbg: 227.4 mg/dL
  Hb: 14.6 g/dL
  Ht: 41.5%
  Lym: 77.4%
  MCH: 20.3 pg
  MCHC: 35.1%
  MCV: 57.7 fL
  Mono: 1.8%
  Neu: 18.8%
  PT: 12.3 s
  Plat: 117.4 x10_4/uL
  RBC: 718.6 x10_4/ul
  Ret: 4.4%
  WBC: 127.2 x10_2/uL
  KIDNEY_L: 1.3 g
  KIDNEY_R: 1.3 g
  KIDNEY_TOTAL: 2.6 g
  LIVER: 14.5 g
  A/G: 1.4
  ALP: 818 IU/L
  ALT: 34.4 IU/L
  AST: 60.6 IU/L
  BUN: 16.6 mg/dL
  CRE: 0.4 mg/dL
  Ca: 10.4 mg/dL
  Cl: 101.6 meq/L
  DBIL: 0.1 mg/dL
  GLC: 218.2 mg/dL
  IP: 6.7 mg/dL
  K: 3.7 meq/L
  LDH: 189.6 IU/L
  Na: 140 meq/L
  PL: 153.2 mg/dL
  RALB: 3.4 g/dL
  TBIL: 0.2 mg/dL
  TC: 66.4 mg/dL
  TG: 148.8 mg/dL
  TP: 5.9 g/dL
  gamma-GTP: 1 IU/L
[4]
  TERMINAL_BW: 422.1 g
  APTT: 21.4 s
  Bas: 0%
  Eos: 1%
  Fbg: 227 mg/dL
  Hb: 15 g/dL
  Ht: 42.7%
  Lym: 84%
  MCH: 19.8 pg
  MCHC: 35%
  MCV: 56.4 fL
  Mono: 1.6%
  Neu: 12.4%
  PT: 12.4 s
  Plat: 107.4 x10_4/uL
  RBC: 757.4 x10_4/ul
  Ret: 2.4%
  WBC: 107.5 x10_2/uL
  KIDNEY_L: 1.5 g
  KIDNEY_R: 1.5 g
  KIDNEY_TOTAL: 2.9 g
  LIVER: 17.7 g
  A/G: 1.3
  ALP: 551.8 IU/L
  ALT: 32.8 IU/L
  AST: 54.8 IU/L
  BUN: 16.6 mg/dL
  CRE: 0.5 mg/dL
  Ca: 10.4 mg/dL
  Cl: 102.4 meq/L
  DBIL: 0.1 mg/dL
  GLC: 218 mg/dL
  IP: 6.5 mg/dL
  K: 3.6 meq/L
  LDH: 125 IU/L
  Na: 140 meq/L
  PL: 162.4 mg/dL
  RALB: 3.4 g/dL
  TBIL: 0.2 mg/dL
  TC: 78.4 mg/dL
  TG: 139.2 mg/dL
  TP: 6.1 g/dL
  gamma-GTP: 1.2 IU/L
[5]
  TERMINAL_BW: 245.3 g
  APTT: 18 s
  Bas: 0%
  Eos: 1%
  Fbg: 213.8 mg/dL
  Hb: 13.2 g/dL
  Ht: 37.5%
  Lym: 79.8%
  MCH: 22.4 pg
  MCHC: 35.3%
  MCV: 63.3 fL
  Mono: 2.6%
  Neu: 15.2%
  PT: 12.5 s
  Plat: 122.9 x10_4/uL
  RBC: 592.2 x10_4/ul
  Ret: 6.6%
  WBC: 108.7 x10_2/uL
  KIDNEY_L: 1.1 g
  KIDNEY_R: 1 g
  KIDNEY_TOTAL: 2.1 g
  LIVER: 11.5 g
  A/G: 1.7
  ALP: 964.4 IU/L
  ALT: 33.2 IU/L
  AST: 68 IU/L
  BUN: 13.8 mg/dL
  CRE: 0.4 mg/dL
  Ca: 10.6 mg/dL
  Cl: 102.4 meq/L
  DBIL: 0.096 mg/dL
  GLC: 212.6 mg/dL
  IP: 7.2 mg/dL
  K: 3.9 meq/L
  LDH: 200.2 IU/L
  Na: 140 meq/L
  PL: 134.4 mg/dL
  RALB: 3.4 g/dL
  TBIL: 0.1 mg/dL
  TC: 65.6 mg/dL
  TG: 99.8 mg/dL
  TP: 5.5 g/dL
  gamma-GTP: 1 IU/L
[6]
  TERMINAL_BW: 276.7 g
  APTT: 20.1 s
  Bas: 0%
  Eos: 1%
  Fbg: 228.8 mg/dL
  Hb: 13.9 g/dL
  Ht: 39.5%
  Lym: 79.2%
  MCH: 21.7 pg
  MCHC: 35.2%
  MCV: 61.9 fL
  Mono: 3%
  Neu: 16.4%
  PT: 12.6 s
  Plat: 124.7 x10_4/uL
  RBC: 639.4 x10_4/ul
  Ret: 6%
  WBC: 123.1 x10_2/uL
  KIDNEY_L: 1.1 g
  KIDNEY_R: 1.1 g
  KIDNEY_TOTAL: 2.3 g
  LIVER: 13.3 g
  A/G: 1.6
  ALP: 916.8 IU/L
  ALT: 33.4 IU/L
  AST: 62.4 IU/L
  BUN: 15.8 mg/dL
  CRE: 0.4 mg/dL
  Ca: 11 mg/dL
  Cl: 100.6 meq/L
  DBIL: 0.1 mg/dL
  GLC: 205 mg/dL
  IP: 7.6 mg/dL
  K: 4.3 meq/L
  LDH: 201.2 IU/L
  Na: 140 meq/L
  PL: 156.8 mg/dL
  RALB: 3.5 g/dL
  TBIL: 0.2 mg/dL
  TC: 74.4 mg/dL
  TG: 142.4 mg/dL
  TP: 5.7 g/dL
  gamma-GTP: 1 IU/L
[7]
  TERMINAL_BW: 338.3 g
  APTT: 19.8 s
  Bas: 0%
  Eos: 1%
  Fbg: 223 mg/dL
  Hb: 14.3 g/dL
  Ht: 41.2%
  Lym: 80.6%
  MCH: 21 pg
  MCHC: 34.8%
  MCV: 60.3 fL
  Mono: 2.2%
  Neu: 15%
  PT: 12.2 s
  Plat: 114.6 x10_4/uL
  RBC: 683 x10_4/ul
  Ret: 4.3%
  WBC: 119.2 x10_2/uL
  KIDNEY_L: 1.3 g
  KIDNEY_R: 1.3 g
  KIDNEY_TOTAL: 2.5 g
  LIVER: 15.1 g
  A/G: 1.5
  ALP: 781 IU/L
  ALT: 32.6 IU/L
  AST: 60.4 IU/L
  BUN: 17.6 mg/dL
  CRE: 0.5 mg/dL
  Ca: 10.7 mg/dL
  Cl: 102.6 meq/L
  DBIL: 0.1 mg/dL
  GLC: 208 mg/dL
  IP: 6.5 mg/dL
  K: 3.7 meq/L
  LDH: 209.8 IU/L
  Na: 140.4 meq/L
  PL: 160.6 mg/dL
  RALB: 3.6 g/dL
  TBIL: 0.2 mg/dL
  TC: 75 mg/dL
  TG: 149.6 mg/dL
  TP: 6.1 g/dL
  gamma-GTP: 1 IU/L
[8]
  TERMINAL_BW: 422 g
  APTT: 19.9 s
  Bas: 0%
  Eos: 1%
  Fbg: 220.4 mg/dL
  Hb: 15 g/dL
  Ht: 43.1%
  Lym: 83.8%
  MCH: 19.8 pg
  MCHC: 34.8%
  MCV: 56.8 fL
  Mono: 2.2%
  Neu: 12.2%
  PT: 12.7 s
  Plat: 99.8 x10_4/uL
  RBC: 759 x10_4/ul
  Ret: 2.6%
  WBC: 140.7 x10_2/uL
  KIDNEY_L: 1.5 g
  KIDNEY_R: 1.5 g
  KIDNEY_TOTAL: 2.9 g
  LIVER: 17.2 g
  A/G: 1.3
  ALP: 736.4 IU/L
  ALT: 32.6 IU/L
  AST: 59.2 IU/L
  BUN: 16.6 mg/dL
  CRE: 0.5 mg/dL
  Ca: 10.4 mg/dL
  Cl: 102.4 meq/L
  DBIL: 0.098 mg/dL
  GLC: 224 mg/dL
  IP: 6.3 mg/dL
  K: 3.5 meq/L
  LDH: 137 IU/L
  Na: 139.6 meq/L
  PL: 140.8 mg/dL
  RALB: 3.4 g/dL
  TBIL: 0.2 mg/dL
  TC: 66.2 mg/dL
  TG: 104.6 mg/dL
  TP: 5.9 g/dL
  gamma-GTP: 1 IU/L
